Reference: patent publication US20250312462A1, “PAK1 DEGRADERS AND METHODS OF USE THEREOF” (INSTITUTE FOR CANCER RESEARCH D/B/A THE RESEARCH INSTITUTE …, priority 2022, published 2025)

What was measured:
Test in all cases: KINOMEscan
Conditions in all cases: read-out: Percent Control
HIPK2 = HIPK2 (Homo sapiens, UniProt Q9H2X6)
Procedure: (§1) The kinase engagement assay (KINOMEscan®) was performed by DiscoverX assessing binding abilities toward a set of kinases.

DRAK1 = DRAK1 (Homo sapiens, UniProt Q9UEE5)
Procedure: as §1

EPHB3 = EPHB3 (Homo sapiens, UniProt P54753)
Procedure: as §1

HIPK3 = HIPK3 (Homo sapiens, UniProt Q9H422)
Procedure: as §1

BMPR1B = BMPR1B (Homo sapiens, UniProt O00238)
Procedure: as §1

MAP3K4 = MAP3K4 (Homo sapiens, UniProt Q9Y6R4)
Procedure: as §1

[1] = target: TYK2(JH2domain-pseudokinase) (Homo sapiens, UniProt P29597)
Procedure: as §1

SIK = SIK (Homo sapiens, UniProt P57059)
Procedure: as §1

IKK-alpha = IKK-alpha (Homo sapiens, UniProt O15111)
Procedure: as §1

GRK2 = GRK2 (Homo sapiens, UniProt P25098)
Procedure: as §1

HIPK1 = HIPK1 (Homo sapiens, UniProt Q86Z02)
Procedure: as §1

IRAK4 = IRAK4 (Homo sapiens, UniProt Q9NWZ3)
Procedure: as §1

EPHA1 = EPHA1 (Homo sapiens, UniProt P21709)
Procedure: as §1

ZAP70 = ZAP70 (Homo sapiens, UniProt P43403)
Procedure: as §1

ASK1 = ASK1 (Homo sapiens, UniProt Q99683)
Procedure: as §1

[2] = target: ABL1(F317I)-phosphorylated (Homo sapiens, UniProt P00519, F317I)
Procedure: as §1

NDR1 = NDR1 (Homo sapiens, UniProt Q15208)
Procedure: as §1

PIK3CA(M1043I) = PIK3CA(M1043I) (Homo sapiens, UniProt P42336, M1043I)
Procedure: as §1

[3] = target: ABL1(Y253F)-phosphorylated (Homo sapiens, UniProt P00519, Y253F)
Procedure: as §1

HCK = HCK (Homo sapiens, UniProt P08631)
Procedure: as §1

SIK2 = SIK2 (Homo sapiens, UniProt Q9H0K1)
Procedure: as §1

YANK3 = YANK3 (Homo sapiens, UniProt Q86UX6)
Procedure: as §1

ACVRL1 = ACVRL1 (Homo sapiens, UniProt P37023)
Procedure: as §1

ANKK1 = ANKK1 (Homo sapiens, UniProt Q8NFD2)
Procedure: as §1

PIK3CA(H1047L) = PIK3CA(H1047L) (Homo sapiens, UniProt P42336, H1047L)
Procedure: as §1

SNRK = SNRK (Homo sapiens, UniProt Q9NRH2)
Procedure: as §1

ERK3 = ERK3 (Homo sapiens, UniProt Q16659)
Procedure: as §1

YANK1 = YANK1 (Homo sapiens, UniProt Q8WU08)
Procedure: as §1

CSNK1E = CSNK1E (Homo sapiens, UniProt P49674)
Procedure: as §1

PDGFRA = PDGFRA (Homo sapiens, UniProt P16234)
Procedure: as §1

EGFR(G719C) = EGFR(G719C) (Homo sapiens, UniProt P00533, G719C)
Procedure: as §1

KIT(V559D) = KIT(V559D) (Homo sapiens, UniProt P10721, V559D)
Procedure: as §1

MST4 = MST4 (Homo sapiens, UniProt Q9P289)
Procedure: as §1

MET = MET (Homo sapiens, UniProt P08581)
Procedure: as §1

DMPK = DMPK (Homo sapiens, UniProt Q09013)
Procedure: as §1

JNK3 = JNK3 (Homo sapiens, UniProt P53779)
Procedure: as §1

CIT = CIT (Homo sapiens, UniProt O14578)
Procedure: as §1

RIPK4 = RIPK4 (Homo sapiens, UniProt P57078)
Procedure: as §1

IRAK4, sequence (Q9NWZ3 whole entry): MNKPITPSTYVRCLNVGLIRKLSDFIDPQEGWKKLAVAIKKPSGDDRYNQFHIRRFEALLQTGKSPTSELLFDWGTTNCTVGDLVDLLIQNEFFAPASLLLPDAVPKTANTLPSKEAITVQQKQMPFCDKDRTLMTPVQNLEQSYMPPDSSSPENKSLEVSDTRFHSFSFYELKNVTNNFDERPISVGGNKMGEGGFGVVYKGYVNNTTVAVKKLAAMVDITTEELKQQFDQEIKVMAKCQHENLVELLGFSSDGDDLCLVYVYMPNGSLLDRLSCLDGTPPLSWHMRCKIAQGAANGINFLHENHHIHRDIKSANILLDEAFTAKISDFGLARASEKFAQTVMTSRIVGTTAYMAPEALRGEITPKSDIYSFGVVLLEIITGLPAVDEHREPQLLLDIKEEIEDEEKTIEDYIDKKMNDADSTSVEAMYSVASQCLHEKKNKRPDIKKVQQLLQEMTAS
NDR1, sequence (Q15208 whole entry): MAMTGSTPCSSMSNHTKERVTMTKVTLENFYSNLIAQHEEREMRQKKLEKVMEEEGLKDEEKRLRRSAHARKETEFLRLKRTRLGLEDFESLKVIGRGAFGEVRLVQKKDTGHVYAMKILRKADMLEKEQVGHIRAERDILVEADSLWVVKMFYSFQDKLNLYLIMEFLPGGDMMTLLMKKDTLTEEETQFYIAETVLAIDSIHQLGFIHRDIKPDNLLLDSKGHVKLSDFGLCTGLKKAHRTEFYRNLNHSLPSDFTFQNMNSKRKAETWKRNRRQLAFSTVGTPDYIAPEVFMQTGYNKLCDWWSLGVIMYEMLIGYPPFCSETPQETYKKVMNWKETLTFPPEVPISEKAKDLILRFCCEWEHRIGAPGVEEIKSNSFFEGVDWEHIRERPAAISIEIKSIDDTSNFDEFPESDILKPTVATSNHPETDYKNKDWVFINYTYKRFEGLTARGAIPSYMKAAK
ZAP70, sequence (P43403 whole entry): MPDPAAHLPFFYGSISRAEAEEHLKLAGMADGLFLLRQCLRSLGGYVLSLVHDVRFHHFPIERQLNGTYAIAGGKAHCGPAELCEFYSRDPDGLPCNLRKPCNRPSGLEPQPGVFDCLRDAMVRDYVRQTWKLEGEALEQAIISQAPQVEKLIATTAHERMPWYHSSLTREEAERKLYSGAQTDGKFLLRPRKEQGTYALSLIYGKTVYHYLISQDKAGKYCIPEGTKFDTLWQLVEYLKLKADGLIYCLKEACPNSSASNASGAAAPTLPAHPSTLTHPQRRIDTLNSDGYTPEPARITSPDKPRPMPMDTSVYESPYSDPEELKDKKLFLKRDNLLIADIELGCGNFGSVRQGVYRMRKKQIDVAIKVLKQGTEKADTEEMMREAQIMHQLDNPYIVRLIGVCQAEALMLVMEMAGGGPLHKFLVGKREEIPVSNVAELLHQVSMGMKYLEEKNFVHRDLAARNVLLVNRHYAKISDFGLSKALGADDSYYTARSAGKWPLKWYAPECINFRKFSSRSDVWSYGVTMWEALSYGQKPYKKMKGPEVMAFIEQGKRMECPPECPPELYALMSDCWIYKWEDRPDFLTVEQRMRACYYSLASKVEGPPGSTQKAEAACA
ANKK1, sequence (Q8NFD2 whole entry): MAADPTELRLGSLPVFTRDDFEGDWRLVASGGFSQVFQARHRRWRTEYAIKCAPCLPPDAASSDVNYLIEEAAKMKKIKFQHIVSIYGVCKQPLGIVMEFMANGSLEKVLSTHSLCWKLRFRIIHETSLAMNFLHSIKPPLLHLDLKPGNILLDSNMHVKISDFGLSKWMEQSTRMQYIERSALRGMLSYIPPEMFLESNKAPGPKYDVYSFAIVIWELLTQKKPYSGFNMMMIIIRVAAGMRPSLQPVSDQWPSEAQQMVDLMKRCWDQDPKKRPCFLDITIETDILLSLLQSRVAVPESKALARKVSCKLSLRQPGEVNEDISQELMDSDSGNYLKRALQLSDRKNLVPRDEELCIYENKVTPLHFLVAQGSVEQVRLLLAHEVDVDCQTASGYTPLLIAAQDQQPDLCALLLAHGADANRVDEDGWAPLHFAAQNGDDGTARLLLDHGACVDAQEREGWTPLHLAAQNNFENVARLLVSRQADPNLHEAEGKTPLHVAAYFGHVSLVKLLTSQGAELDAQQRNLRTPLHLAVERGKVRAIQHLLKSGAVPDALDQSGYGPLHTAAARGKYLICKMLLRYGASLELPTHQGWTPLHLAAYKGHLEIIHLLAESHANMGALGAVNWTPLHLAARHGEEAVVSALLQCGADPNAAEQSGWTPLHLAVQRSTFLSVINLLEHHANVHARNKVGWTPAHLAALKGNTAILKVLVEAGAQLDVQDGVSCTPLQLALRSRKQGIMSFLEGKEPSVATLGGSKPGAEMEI
HCK, sequence (P08631 whole entry): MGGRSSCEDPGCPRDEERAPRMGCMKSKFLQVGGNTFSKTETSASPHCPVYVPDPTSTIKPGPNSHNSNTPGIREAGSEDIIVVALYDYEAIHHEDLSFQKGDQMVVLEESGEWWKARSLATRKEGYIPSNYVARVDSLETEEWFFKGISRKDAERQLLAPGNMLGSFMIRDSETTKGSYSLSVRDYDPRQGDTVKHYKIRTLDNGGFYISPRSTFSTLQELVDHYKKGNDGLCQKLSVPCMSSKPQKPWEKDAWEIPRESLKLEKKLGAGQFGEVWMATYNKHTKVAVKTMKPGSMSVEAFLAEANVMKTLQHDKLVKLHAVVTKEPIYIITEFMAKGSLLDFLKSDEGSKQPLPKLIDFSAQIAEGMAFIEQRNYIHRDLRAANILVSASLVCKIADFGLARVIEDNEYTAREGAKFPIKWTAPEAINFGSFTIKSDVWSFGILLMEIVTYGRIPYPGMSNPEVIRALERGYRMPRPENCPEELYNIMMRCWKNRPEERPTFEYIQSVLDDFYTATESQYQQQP
HIPK1, sequence (Q86Z02 whole entry): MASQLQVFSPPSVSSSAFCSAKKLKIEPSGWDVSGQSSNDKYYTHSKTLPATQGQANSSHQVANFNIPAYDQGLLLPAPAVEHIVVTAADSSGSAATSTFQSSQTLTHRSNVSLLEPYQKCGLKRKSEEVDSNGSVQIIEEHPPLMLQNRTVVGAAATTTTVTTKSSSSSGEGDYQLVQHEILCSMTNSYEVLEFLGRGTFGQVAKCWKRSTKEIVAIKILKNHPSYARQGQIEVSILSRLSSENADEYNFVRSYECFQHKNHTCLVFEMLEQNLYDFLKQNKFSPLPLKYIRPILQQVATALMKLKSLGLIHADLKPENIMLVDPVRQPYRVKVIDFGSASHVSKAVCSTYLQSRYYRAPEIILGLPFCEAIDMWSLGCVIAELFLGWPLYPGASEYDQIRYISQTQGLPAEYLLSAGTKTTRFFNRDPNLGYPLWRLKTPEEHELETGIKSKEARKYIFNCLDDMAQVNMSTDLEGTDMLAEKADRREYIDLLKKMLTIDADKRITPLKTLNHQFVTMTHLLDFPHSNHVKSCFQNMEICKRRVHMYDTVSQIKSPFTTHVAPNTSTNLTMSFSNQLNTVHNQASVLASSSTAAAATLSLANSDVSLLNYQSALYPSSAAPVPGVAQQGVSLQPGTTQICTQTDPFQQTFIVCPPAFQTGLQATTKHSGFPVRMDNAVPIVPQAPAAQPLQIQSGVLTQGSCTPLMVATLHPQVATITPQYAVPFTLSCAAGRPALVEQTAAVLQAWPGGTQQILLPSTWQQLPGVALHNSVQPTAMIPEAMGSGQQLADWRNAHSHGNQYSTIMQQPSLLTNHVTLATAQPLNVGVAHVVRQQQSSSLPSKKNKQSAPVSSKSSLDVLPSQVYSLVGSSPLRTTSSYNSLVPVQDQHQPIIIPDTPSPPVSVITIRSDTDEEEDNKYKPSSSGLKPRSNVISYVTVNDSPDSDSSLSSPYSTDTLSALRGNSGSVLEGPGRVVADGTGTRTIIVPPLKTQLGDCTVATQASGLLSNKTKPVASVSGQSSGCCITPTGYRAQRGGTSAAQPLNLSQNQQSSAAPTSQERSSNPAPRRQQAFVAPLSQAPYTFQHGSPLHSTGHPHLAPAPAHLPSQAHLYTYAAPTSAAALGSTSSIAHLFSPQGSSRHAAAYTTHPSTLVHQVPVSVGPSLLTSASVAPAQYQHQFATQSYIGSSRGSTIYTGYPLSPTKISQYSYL
DRAK1, sequence (Q9UEE5 whole entry): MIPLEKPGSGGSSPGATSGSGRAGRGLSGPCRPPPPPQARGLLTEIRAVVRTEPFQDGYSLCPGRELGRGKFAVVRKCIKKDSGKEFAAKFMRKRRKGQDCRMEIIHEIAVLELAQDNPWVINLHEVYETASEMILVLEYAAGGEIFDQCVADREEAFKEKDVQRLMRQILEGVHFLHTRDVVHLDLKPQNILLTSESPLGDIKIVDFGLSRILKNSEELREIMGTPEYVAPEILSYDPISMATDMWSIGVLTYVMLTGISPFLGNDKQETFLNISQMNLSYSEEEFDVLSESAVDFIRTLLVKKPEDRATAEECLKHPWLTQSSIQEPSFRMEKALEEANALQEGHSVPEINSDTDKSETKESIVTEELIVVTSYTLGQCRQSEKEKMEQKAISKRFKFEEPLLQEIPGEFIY
CSNK1E, sequence (P49674 whole entry): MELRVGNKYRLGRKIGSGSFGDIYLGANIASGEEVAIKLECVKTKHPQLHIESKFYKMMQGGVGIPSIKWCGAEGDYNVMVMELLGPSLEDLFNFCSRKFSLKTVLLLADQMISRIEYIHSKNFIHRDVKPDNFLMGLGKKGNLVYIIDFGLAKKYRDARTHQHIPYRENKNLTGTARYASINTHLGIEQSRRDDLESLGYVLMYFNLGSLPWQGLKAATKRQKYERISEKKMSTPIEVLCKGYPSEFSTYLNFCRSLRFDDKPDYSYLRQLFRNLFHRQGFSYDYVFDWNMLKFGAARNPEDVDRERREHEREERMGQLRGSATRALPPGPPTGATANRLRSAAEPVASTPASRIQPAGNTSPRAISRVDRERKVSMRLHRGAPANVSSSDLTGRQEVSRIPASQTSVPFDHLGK

Question: With `O=C1CCC(N2C(=O)c3cccc(NCCCCCCCCNC(=O)N4CC[C@H](NC5=Nc6cc(F)ccc6N(CC(F)F)c6ccc(Cl)cc65)C4)c3C2=O)C(=O)N1` (stereo partly drawn) [BJG-05-039, (3S)-3-((2-Chloro-5-(2,2-difluoroethyl)-8-fluoro-5H-dibenzo[b,e][1,4]diazepin-11-yl)amino)-N-(8-((2-(2,6-dioxopiperidin-3-yl)-1,3-dioxoisoindolin-4-yl)amino)octyl)pyrrolidine-1-carboxamide] as the compound, how does the remaining binding at 10 µM (HIPK2) read?
Answer: 100%

Question: And the remaining binding at 10 µM (DRAK1)?
Answer: 59%

Question: And the remaining binding at 10 µM (EPHB3)?
Answer: 89%

Question: What about the remaining binding at 10 µM (HIPK3) of the same compound?
Answer: 100%

Question: What about the remaining binding at 10 µM (BMPR1B) of the same compound?
Answer: 85%

Question: And the remaining binding at 10 µM (MAP3K4)?
Answer: 95%

Question: What about the remaining binding at 10 µM [1] of the same compound?
Answer: 97%

Question: And the remaining binding at 10 µM (SIK)?
Answer: 95%

Question: And the remaining binding at 10 µM (IKK-alpha)?
Answer: 91%

Question: And the remaining binding at 10 µM (GRK2)?
Answer: 77%

Question: And the remaining binding at 10 µM (HIPK1)?
Answer: 100%

Question: And the remaining binding at 10 µM (IRAK4)?
Answer: 100%

Question: What about the remaining binding at 10 µM (EPHA1) of the same compound?
Answer: 98%

Question: What about the remaining binding at 10 µM (ZAP70) of the same compound?
Answer: 100%

Question: And the remaining binding at 10 µM (ASK1)?
Answer: 73%

Question: What about the remaining binding at 10 µM [2] of the same compound?
Answer: 100%

Question: What about the remaining binding at 10 µM (NDR1) of the same compound?
Answer: 86%

Question: What about the remaining binding at 10 µM (PIK3CA(M1043I)) of the same compound?
Answer: 100%

Question: And the remaining binding at 10 µM [3]?
Answer: 100%

Question: What about the remaining binding at 10 µM (HCK) of the same compound?
Answer: 90%

Question: What about the remaining binding at 10 µM (SIK2) of the same compound?
Answer: 97%

Question: And the remaining binding at 10 µM (YANK3)?
Answer: 72%

Question: What about the remaining binding at 10 µM (ACVRL1) of the same compound?
Answer: 71%

Question: What about the remaining binding at 10 µM (ANKK1) of the same compound?
Answer: 87%

Question: What about the remaining binding at 10 µM (PIK3CA(H1047L)) of the same compound?
Answer: 63%

Question: What about the remaining binding at 10 µM (SNRK) of the same compound?
Answer: 89%

Question: And the remaining binding at 10 µM (ERK3)?
Answer: 64%

Question: What about the remaining binding at 10 µM (YANK1) of the same compound?
Answer: 100%

Question: And the remaining binding at 10 µM (CSNK1E)?
Answer: 61%

Question: And the remaining binding at 10 µM (PDGFRA)?
Answer: 100%

Question: What about the remaining binding at 10 µM (EGFR(G719C)) of the same compound?
Answer: 83%

Question: What about the remaining binding at 10 µM (KIT(V559D)) of the same compound?
Answer: 81%

Question: And the remaining binding at 10 µM (MST4)?
Answer: 86%

Question: And the remaining binding at 10 µM (MET)?
Answer: 68%

Question: What about the remaining binding at 10 µM (DMPK) of the same compound?
Answer: 52%

Question: And the remaining binding at 10 µM (JNK3)?
Answer: 88%

Question: What about the remaining binding at 10 µM (CIT) of the same compound?
Answer: 94%

Question: What about the remaining binding at 10 µM (RIPK4) of the same compound?
Answer: 98%
